Reference: patent US8309574B2, “Nuclear transfer promoter for Rac protein and method of screening the same” (Kowa Company, Ltd., priority 2004, dated 2012)
Entries after “also recorded” stand apart in the source; their conditions may differ.

Key:
Rac protein = assay: Nuclear transfer of GFP/Rac fusion protein in transformed HUVEC, observed by fluorescence microscopy; format: cell-based; details: HUVEC expressing GFP/Rac fusion protein; pitavastatin 1 μM, 15 hours stationary culture; GFP fluorescence, nuclei stained with Hoechst
Protocol: The present inventors measured the behavior of Rac protein in HUVEC with an HMG-CoA reductase inhibitor, particularly pitavastatin. For this measurement, a gene encoding a Rac/fluorescence protein GFP fusion protein was introduced into HUVEC to prepare a transformed cell expressing a GFP/Rac fusion protein. This transformed cell was cultured, and the state of Rac distributed in the cell in the presence or absence of pitavastatin was examined by observing the fluorescence of GFP. A gene encoding the whole area of a Rac translation region was introduced into a predetermined position of a commercial plasmid pEGFP-C1 for preparation of a fusion protein consisting of GFP and a desired protein, to construct a plasmid comprising the GFP-Rac gene. After HUVECs were put to a 6-well plate and then cultured overnight in EGM-2 medium. Using Fugene 6, the plasmid construct DNA prepared above was added in an amount of 0.8 μg/well to the cells. The cells were further cultured for 21 hours in EGM-2 medium, and then the fluorescence of GFP was observed under a fluorescence microscope. Six hours after the culture of HUVECs to which the plasmid construct DNA had been added was initiated, pitavastatin was added to the cells to a final concentration of 1 μM. And then the cells were subjected to stationary culture for 15 hours, fixed onto a prepared slide and observed under a fluorescence microscope. […]

[1] = system: vascular endothelial cells; details: cited from earlier work

## O=C(O)C[C@H](O)C[C@H](O)/C=C/c1c(C2CC2)nc2ccccc2c1-c1ccc(F)cc1 [pitavastatin, (3R,5S,6E)-7-[2-cyclopropyl-4-(4-fluorophenyl)-3-quinolyl]-3,5-dihydroxy-6-heptenoic acid]
Rac protein
  state of Rac distributed in the cell (transfer of GFP-Rac into the nucleus): fluorescence of GFP was localized in a certain area of the cells; also recorded: GFP-Rac is transferred to a nucleus
[1]
  expression of MCP-1: suppresses
  expression of NO synthase: promotes
  expression of PAI-1: suppresses
  expression of PTX3: suppresses
  expression of endothelin: suppresses
  expression of inflammatory cytokine IL-8: suppresses
  expression of thrombomodulin: promotes
